Source: patent publication US12692238B2, “Substituted pyridazinone herbicides” (FMC CORPORATION, priority 2020, dated 2026)

Experiments:
Type in all cases: in vivo
[1] = system: ryegrass, Italian (Italian ryegrass, Lolium multiflorum); experiment: Test A preemergence, ryegrass, Italian; conditions: 0 to 100 scale, 10 days
Source text: (§1) Seeds of plant species selected from barnyardgrass (Echinochloa crus-galli), blackgrass (Alopecurus myosuroides), corn (Zea mays), foxtail, giant (giant foxtail, Setaria faberi), foxtail, green (green foxtail, Setaria viridis), goosegrass (Eleusine indica), kochia (Bassia scoparia), oat, wild (wild oat, Avena fatua), palmer amaranth (pigweed, palmer, Amaranthus palmeri), redroot pigweed (Amaranthus retroflexus), ragweed (common ragweed, Ambrosia artemisiifolia), ryegrass, Italian (Italian ryegrass, Lolium multiflorum), and soybean (Glycine max) were planted into a blend of loam soil and sand and treated preemergence with a directed soil spray using test chemicals formulated in a non-phytotoxic solvent mixture which included a surfactant.
(§2) At the same time, plants selected from these crop and weed species and also wheat (Triticum aestivum), galium (catchweed bedstraw, Galium aparine) and horseweed (Erigeron canadensis) were planted in pots containing the same blend of loam soil and sand and treated with postemergence applications of test chemicals formulated in the same manner. Plants ranged in height from 2 to 10 cm and were in the one- to two-leaf stage for the postemergence treatment. Treated plants and untreated controls were maintained in a greenhouse for 10 days, after which time all treated plants were compared to untreated controls and visually evaluated for injury. Plant response ratings, summarized in Table A, are based on a 0 to 100 scale where 0 is no effect and 100 is complete control. A dash (-) response means no test result.

kochia (Bassia scoparia) [2] = experiment: Test A preemergence, kochia; conditions: 0 to 100 scale, 10 days
Source text: as §1, §2

[3] = system: ryegrass, Italian (Italian ryegrass, Lolium multiflorum); experiment: Test A postemergence, ryegrass, Italian; conditions: 10 days
Source text: as §1, §2

corn (Zea mays) = experiment: Test A postemergence, corn; conditions: 10 days
Source text: as §1, §2

[4] = system: galium (catchweed bedstraw, Galium aparine); experiment: Test A postemergence, galium; conditions: 10 days
Source text: as §1, §2

[5] = system: wheat (Triticum aestivum); experiment: Test A postemergence, wheat; conditions: 10 days
Source text: as §1, §2

[6] = system: barnyardgrass (Echinochloa crus-galli); experiment: Test A preemergence, barnyardgrass; conditions: 10 days
Source text: as §1, §2

[7] = system: ducksalad (Heteranthera limosa); experiment: Test B flooded paddy test, ducksalad; conditions: 250 g ai/ha, Flood; visually evaluated after 10 to 14 days
Experimental: (§3) Plant species in the flooded paddy test selected from barnyardgrass (Echinochloa crus-galli), ducksalad (Heteranthera limosa), rice (Oryza sativa), and sedge, umbrella (small-flower umbrella sedge, Cyperus difformis) were grown to the 2-leaf stage for testing. At time of treatment, test pots were flooded to 3 cm above the soil surface, treated by application of test compounds directly to the paddy water, and then maintained at that water depth for the duration of the test. Treated plants and controls were maintained in a greenhouse for 10 to 14 days, after which time all species were compared to controls and visually evaluated. Plant response ratings, summarized in Table B, are based on a scale of 0 to 100 where 0 is no effect and 100 is complete control. A dash (-) response means no test result.

[8] = system: barnyardgrass (Echinochloa crus-galli); experiment: Test A postemergence, barnyardgrass; conditions: 10 days
Source text: as §1, §2

[9] = system: blackgrass (Alopecurus myosuroides); experiment: Test A postemergence, blackgrass; conditions: 10 days
Source text: as §1, §2

[10] = system: redroot pigweed (Amaranthus retroflexus); experiment: Test A preemergence, redroot pigweed; conditions: 0 to 100 scale, 10 days
Source text: as §1, §2

[11] = system: foxtail, giant (giant foxtail, Setaria faberi); experiment: Test A preemergence, foxtail, giant; conditions: 0 to 100 scale, 10 days
Source text: as §1, §2

[12] = system: foxtail, giant (giant foxtail, Setaria faberi); experiment: Test A postemergence, foxtail, giant; conditions: 10 days
Source text: as §1, §2

kochia (Bassia scoparia) [13] = experiment: Test A postemergence, kochia; conditions: 10 days
Source text: as §1, §2

rice (Oryza sativa) = experiment: Test B flooded paddy test, rice; conditions: 250 g ai/ha, Flood; visually evaluated after 10 to 14 days
Experimental: as §3

[14] = system: redroot pigweed (Amaranthus retroflexus); experiment: Test A postemergence, redroot pigweed; conditions: 10 days
Source text: as §1, §2

[15] = system: ragweed (common ragweed, Ambrosia artemisiifolia); experiment: Test A postemergence, ragweed; conditions: 10 days
Source text: as §1, §2

[16] = system: ragweed (common ragweed, Ambrosia artemisiifolia); experiment: Test A preemergence, ragweed; conditions: 0 to 100 scale, 10 days
Source text: as §1, §2

[17] = system: barnyardgrass (Echinochloa crus-galli); experiment: Test B flooded paddy test, barnyardgrass; conditions: 250 g ai/ha, Flood; visually evaluated after 10 to 14 days
Experimental: as §3

[18] = system: sedge, umbrella (small-flower umbrella sedge, Cyperus difformis); experiment: Test B flooded paddy test, sedge, umbrella; conditions: 250 g ai/ha, Flood; visually evaluated after 10 to 14 days
Experimental: as §3

[19] = 31 g ai/ha, postemergence, 0 to 100 scale (0 no effect, 100 complete control)
[20] = Postemergence, 125 g ai/ha, 0 to 100 scale
[21] = Postemergence, 31 g ai/ha, 0 to 100 scale
[22] = 125 g ai/ha, 0 to 100 scale (0 no effect, 100 complete control)

| Structure (SMILES) | Plant response rating, Ryegrass, Italian ([1]; 31 g ai/ha) | Plant response rating, Ryegrass, Italian ([1]; 125 g ai/ha) | Plant response rating, Kochia (kochia (Bassia scoparia) [2]; 31 g ai/ha) | Plant response rating, Kochia (kochia (Bassia scoparia) [2]; 125 g ai/ha) | Plant response rating, Ryegrass, Italian [3, 19] | Plant response rating, Ryegrass, Italian [3, 20] | Plant response rating, Corn (corn (Zea mays); [20]) | Plant response rating, Galium [4, 19] | Plant response rating, Galium [4, 20] | Plant response rating, Wheat [5, 19] | Plant response rating, Wheat [5, 20] | Plant response rating, Barnyardgrass ([6]; 31 g ai/ha, 0 to 100 scale) | Plant response rating, Barnyardgrass [6, 22] | Plant response rating, Ducksalad (0 to 100 scale where 0 is no effect and 100 is complete control) [7] | Plant response rating, Barnyardgrass [8, 20] | Plant response rating, Blackgrass [9, 20] | Plant response rating, Pigweed, Redroot ([10]; 31 g ai/ha) | Plant response rating, Pigweed, Redroot ([10]; 125 g ai/ha) | Plant response rating, Foxtail, Giant ([11]; 31 g ai/ha) | Plant response rating, Foxtail, Giant ([11]; 125 g ai/ha) | other results |
| --- | --- | --- | --- | --- | --- | --- | --- | --- | --- | --- | --- | --- | --- | --- | --- | --- | --- | --- | --- | --- | --- |
| CC(=O)OCOc1c(C)nn(C)c(=O)c1-c1c2ccccc2c(Cl)c2ccccc12 [Compound 12] | 70 | 90 | 0 | 100 | 80 | 100 | 10 | 100 | 100 | 0 | 10 | 20 | 90 | 70 | 60 | 30 | 100 | 100 | 10 | 80 | Plant response rating, Corn (corn (Zea mays); [21]): 0; Plant response rating, Barnyardgrass [8, 21]: 10; Plant response rating, Blackgrass [9, 21]: 0; Plant response rating, Foxtail, Giant [12, 21]: 20; Plant response rating, Foxtail, Giant [12, 20]: 80; Plant response rating, Kochia (kochia (Bassia scoparia) [13]; [19]): 40; Plant response rating, Kochia (kochia (Bassia scoparia) [13]; [20]): 80; Plant response rating, Rice (0 to 100 scale where 0 is no effect and 100 is complete control) (rice (Oryza sativa)): 0; Plant response rating, Pigweed, Redroot [14, 19]: 100; Plant response rating, Pigweed, Redroot [14, 20]: 100; Plant response rating, Ragweed [15, 19]: 90; Plant response rating, Ragweed [15, 20]: 100; Plant response rating, Ragweed ([16]; 31 g ai/ha): 60; Plant response rating, Ragweed ([16]; 125 g ai/ha): 80; Plant response rating, Barnyardgrass (0 to 100 scale where 0 is no effect and 100 is complete control) [17]: 0; Plant response rating, Sedge, Umbrella (0 to 100 scale where 0 is no effect and 100 is complete control) [18]: 85 |
| CC(=O)OCOc1c(C)nn(C)c(=O)c1-c1c2ccccc2cc2ccccc12 [Compound 13] | 30 | 70 | 0 | 0 | 70 | 100 | 0 | 100 | 100 | 0 | 0 | 0 | 30 | 0 | 40 | 40 | 100 | 100 | 0 | 20 | Plant response rating, Corn (corn (Zea mays); [21]): 0; Plant response rating, Barnyardgrass [8, 21]: 10; Plant response rating, Blackgrass [9, 21]: 0; Plant response rating, Foxtail, Giant [12, 21]: 10; Plant response rating, Foxtail, Giant [12, 20]: 60; Plant response rating, Kochia (kochia (Bassia scoparia) [13]; [19]): 10; Plant response rating, Kochia (kochia (Bassia scoparia) [13]; [20]): 50; Plant response rating, Rice (0 to 100 scale where 0 is no effect and 100 is complete control) (rice (Oryza sativa)): 0; Plant response rating, Pigweed, Redroot [14, 19]: 100; Plant response rating, Pigweed, Redroot [14, 20]: 100; Plant response rating, Ragweed [15, 19]: 90; Plant response rating, Ragweed [15, 20]: 100; Plant response rating, Barnyardgrass (0 to 100 scale where 0 is no effect and 100 is complete control) [17]: 0; Plant response rating, Sedge, Umbrella (0 to 100 scale where 0 is no effect and 100 is complete control) [18]: 0 |
| CC(=O)OCOc1c(C)nn(C)c(=O)c1-c1c2ccccc2c(Br)c2ccccc12 [Compound 14] | 80 | 100 | 20 | 30 | 80 | 100 | 0 | 100 | 100 | 0 | 40 | 10 | 80 | 80 | 80 | 30 | 100 | 100 | 60 | 100 | Plant response rating, Corn (corn (Zea mays); [21]): 0; Plant response rating, Barnyardgrass [8, 21]: 30; Plant response rating, Blackgrass [9, 21]: 20; Plant response rating, Foxtail, Giant [12, 21]: 30; Plant response rating, Foxtail, Giant [12, 20]: 90; Plant response rating, Kochia (kochia (Bassia scoparia) [13]; [19]): 30; Plant response rating, Kochia (kochia (Bassia scoparia) [13]; [20]): 60; Plant response rating, Rice (0 to 100 scale where 0 is no effect and 100 is complete control) (rice (Oryza sativa)): 0; Plant response rating, Pigweed, Redroot [14, 19]: 100; Plant response rating, Pigweed, Redroot [14, 20]: 100; Plant response rating, Ragweed [15, 19]: 90; Plant response rating, Ragweed [15, 20]: 100; Plant response rating, Ragweed ([16]; 31 g ai/ha): 90; Plant response rating, Ragweed ([16]; 125 g ai/ha): 100; Plant response rating, Barnyardgrass (0 to 100 scale where 0 is no effect and 100 is complete control) [17]: 20; Plant response rating, Sedge, Umbrella (0 to 100 scale where 0 is no effect and 100 is complete control) [18]: 90 |
| CC(=O)OCOc1c(Cl)nn(C)c(=O)c1-c1c2cc(C)ccc2cc2ccc(C)cc12 [Compound 23] | 0 | 0 | 60 | 90 | 0 | 40 | 40 | 70 | 100 | 0 | 0 | 30 | 80 | 95 | 90 | 20 | 100 | 100 | 0 | 20 | Plant response rating, Corn (corn (Zea mays); [19]): 0; Plant response rating, Barnyardgrass [8, 19]: 30; Plant response rating, Blackgrass [9, 19]: 40; Plant response rating, Foxtail, Giant [12, 19]: 0; Plant response rating, Foxtail, Giant [12, 20]: 50; Plant response rating, Kochia (kochia (Bassia scoparia) [13]; [19]): 20; Plant response rating, Kochia (kochia (Bassia scoparia) [13]; [20]): 80; Plant response rating, Rice (0 to 100 scale where 0 is no effect and 100 is complete control) (rice (Oryza sativa)): 0; Plant response rating, Pigweed, Redroot [14, 19]: 100; Plant response rating, Pigweed, Redroot [14, 20]: 100; Plant response rating, Ragweed [15, 19]: 70; Plant response rating, Ragweed [15, 20]: 100; Plant response rating, Ragweed ([16]; 31 g ai/ha): 40; Plant response rating, Ragweed ([16]; 125 g ai/ha): 90; Plant response rating, Barnyardgrass (0 to 100 scale where 0 is no effect and 100 is complete control) [17]: 60; Plant response rating, Sedge, Umbrella (0 to 100 scale where 0 is no effect and 100 is complete control) [18]: 75 |
